“Also recorded” adds a separate entry of the source.
Assays:
[1] = test system: human neutrophil elastase; assay: inhibition of human neutrophil elastase by E. coli extracts; type: biochemical; conditions: clarified sonicated E. coli extracts; FIG. 1; compared with normal (Met358)alpha1-AT
Procedure: Clarified sonicated extracts were prepared from induced cultures of E. coli TGE900 containing one of the above three plasmids.
Aliquots of extracts are tested for their capacity to inhibit human neutrophil elastase (this technique having already been described).

[2] = test system: human plasma kallikrein; assay: antikallikrein activity, residual hydrolysis of chromozyme PK at 410 nm; type: biochemical
Procedure: The antikallikrein activity is assessed by measuring at 410 nm the residual extent of hydrolysis of chromosyme PK (benzoyl-Pro-Pre-Arg-4-nitroanilide acetate, Boehringer Mannheim).
2.6 pmol of human plasma kallikrein are preincubated at 37° C. with an increasing amount of inhibitor in 0.1 M Na phosphate/0.15 M NaCl buffer. After 30 minutes, the reaction is stopped by adding […] of substrate (final concentration 0.5 mM) and the residual enzyme activity is determined.

[3] = test system: human thrombin; assay: thrombin inhibition curves; type: biochemical; conditions: FIG. 3; comparison with alpha1-AT(Arg358)
[4] = test system: kallikrein; conditions: ratio versus C1 inhibitor; cited from earlier work
[5] = test system: factor XIIF; conditions: ratio versus C1 inhibitor; cited from earlier work
[6] = test system: human thrombin; conditions: general statement on the earlier variant; cited from earlier work

Substance	inhibition of neutrophil elastase [1]	inhibition of kallikrein ([2]; 2.6 pmol kallikrein, 37° C., 30 minutes preincubation, FIG. 2)	inhibition of kallikrein ([2]; 2.6 pmol kallikrein, 37° C., 30 minutes preincubation; FIG. 2; Arg^358) alpha1 -AT)	inhibition of thrombin [3]	activity in inactivation of kallikrein relative to C1 inhibitor [4] [times]	activity in inactivation of factor XIIF relative to C1 inhibitor [5] [times]	antithrombin activity [6]
(Ala^357, Arg^358)alpha1 -AT: variant of human alpha1-antitrypsin, Pro357 replaced by Ala and Met358 by Arg, expressed in E. coli from plasmid pTG1946	incapable of inhibiting	very much improved	capable of rapidly inhibiting	very weak; also recorded: only very weakly			
(Arg^358)alpha1 -AT: human alpha1-antitrypsin variant with Met358 replaced by arginine, described in WO 86/00,337; plasmid pTG1900					4.1	11.5	very substantial
